# In patent publication US10160747B2, “Compounds and methods for kinase modulation, and indications therefor” (Plexxikon Inc., priority 2016, dated 2018):
# Molecular target: T1, BA/F3-FLT3-ITD + D835Y (Homo sapiens, UniProt P36888, D835Y, cells depend on it, form not given)
# T1 sequence (P36888 with tags, fused parts or gaps INS600HVDFREYEYD/D835Y): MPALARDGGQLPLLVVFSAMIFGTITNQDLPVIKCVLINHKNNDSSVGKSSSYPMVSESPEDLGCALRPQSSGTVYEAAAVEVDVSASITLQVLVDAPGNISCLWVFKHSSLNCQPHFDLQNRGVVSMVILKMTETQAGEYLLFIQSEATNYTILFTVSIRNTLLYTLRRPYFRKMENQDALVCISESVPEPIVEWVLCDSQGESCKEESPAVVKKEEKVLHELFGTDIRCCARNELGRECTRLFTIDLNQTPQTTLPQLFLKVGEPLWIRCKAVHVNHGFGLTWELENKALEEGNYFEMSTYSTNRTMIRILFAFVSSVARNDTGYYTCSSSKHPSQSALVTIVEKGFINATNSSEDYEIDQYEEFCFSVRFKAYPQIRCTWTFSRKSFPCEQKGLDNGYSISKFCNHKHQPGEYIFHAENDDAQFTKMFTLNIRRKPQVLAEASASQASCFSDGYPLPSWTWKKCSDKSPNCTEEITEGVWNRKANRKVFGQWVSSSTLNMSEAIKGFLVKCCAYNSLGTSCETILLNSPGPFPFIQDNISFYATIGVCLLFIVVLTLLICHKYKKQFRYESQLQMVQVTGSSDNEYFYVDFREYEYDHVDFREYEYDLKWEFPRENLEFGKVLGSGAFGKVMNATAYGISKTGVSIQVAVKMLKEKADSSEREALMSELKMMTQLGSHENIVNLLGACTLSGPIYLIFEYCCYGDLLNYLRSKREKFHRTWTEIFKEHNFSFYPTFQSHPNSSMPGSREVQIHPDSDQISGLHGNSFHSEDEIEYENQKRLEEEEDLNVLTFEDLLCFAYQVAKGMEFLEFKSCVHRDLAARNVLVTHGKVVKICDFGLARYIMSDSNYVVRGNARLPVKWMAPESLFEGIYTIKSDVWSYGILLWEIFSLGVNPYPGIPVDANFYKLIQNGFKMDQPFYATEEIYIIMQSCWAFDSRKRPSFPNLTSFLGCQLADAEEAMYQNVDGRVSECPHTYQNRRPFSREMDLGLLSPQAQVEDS
# Test: Engineered BA/F3 cell growth assay, FLT3 ITD/D835Y
# Type: cell-based, murine
# Details: 3 d growth
# How it was run: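 Murine Ba/F3 cells transfected with full-length FLT3 ITD/D835Y, grown without IL-3 so growth depends on FLT3. Seeded at 1×10^4 cells/well, 8-point 1:3 series to 1 μM top (0.2% DMSO), 3 days at 37 °C. CellTiter-Glo luminescence (ATP) versus concentration gave IC50.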
row,SMILES,GI50
1,"Cn1cc(Nc2ncc(-c3ccc(CC(=O)Nc4ccnc(C(F)(F)F)c4)cc3)cn2)cn1 [Compound P-0134, 2-[4-[2-[(1-methylpyrazol-4-yl)amino]pyrimidin-5-yl]phenyl]-N-[2-(trifluoromethyl)-4-pyridyl]acetamide]",0.0001 to 10 µM
2,"Cn1cc(Nc2ncc(-c3ccc(CC(=O)Nc4cc(C(F)(F)F)ncn4)cc3)cn2)cn1 [Compound P-0135, 2-[4-[2-[(1-methylpyrazol-4-yl)amino]pyrimidin-5-yl]phenyl]-N-[6-(trifluoromethyl)pyrimidin-4-yl]acetamide]",0.0001 to 10 µM
3,"Cn1cc(Nc2ncc(-c3ccc(CC(=O)Nc4cncc(C(F)(F)F)c4)cc3)cn2)cn1 [Compound P-0136, 2-[4-[2-[(1-methylpyrazol-4-yl)amino]pyrimidin-5-yl]phenyl]-N-[5-(trifluoromethyl)-3-pyridyl]acetamide]",0.0001 to 10 µM
4,"Cn1cc(Nc2ncc(-c3ccc(CC(=O)Nc4ccnc(C(F)(F)F)n4)cc3)cn2)cn1 [Compound P-0137, 2-[4-[2-[(1-methylpyrazol-4-yl)amino]pyrimidin-5-yl]phenyl]-N-[2-(trifluoromethyl)pyrimidin-4-yl]acetamide]",0.0001 to 10 µM
5,"COc1ncc(NC(=O)Cc2ccc(-c3cnc(Nc4cnn(C)c4)nc3)cc2)cc1C(F)(F)F [Compound P-0138, N-[6-methoxy-5-(trifluoromethyl)-3-pyridyl]-2-[4-[2-[(1-methylpyrazol-4-yl)amino]pyrimidin-5-yl]phenyl]acetamide]",0.0001 to 10 µM
6,"Cn1cc(Nc2ncc(-c3ccc(CC(=O)Nc4cc(C(F)(F)F)ccn4)cc3)cn2)cn1 [Compound P-0139, 2-[4-[2-[(1-methylpyrazol-4-yl)amino]pyrimidin-5-yl]phenyl]-N-[4-(trifluoromethyl)-2-pyridyl]acetamide]",0.0001 to 10 µM
7,"Cc1ncc(NC(=O)Cc2ccc(-c3cnc(Nc4cnn(C)c4)nc3)cc2)cc1C(F)(F)F [Compound P-0140, 2-[4-[2-[(1-methylpyrazol-4-yl)amino]pyrimidin-5-yl]phenyl]-N-[6-methyl-5-(trifluoromethyl)-3-pyridyl]acetamide]",0.0001 to 10 µM
8,"Cn1cc(Nc2ncc(-c3ccc(CC(=O)Nc4cccc(C(F)(F)F)c4)cc3)cn2)cn1 [Compound P-0141, 2-[4-[2-[(1-methylpyrazol-4-yl)amino]pyrimidin-5-yl]phenyl]-N-[3-(trifluoromethyl)phenyl]acetamide]",0.0001 to 10 µM
9,"Cn1cc(Nc2ncc(-c3ccc(CC(=O)Nc4ccc(C(F)(F)F)c(F)c4)cc3)cn2)cn1 [Compound P-0142, N-[3-fluoro-4-(trifluoromethyl)phenyl]-2-[4-[2-[(1-methylpyrazol-4-yl)amino]pyrimidin-5-yl]phenyl]acetamide]",0.0001 to 10 µM
10,"Cn1cc(Nc2ncc(-c3ccc(CC(=O)Nc4ccc(C(C)(C)C)nc4)cc3)cn2)cn1 [Compound P-0143, N-(6-tert-butyl-3-pyridyl)-2-[4-[2-[(1-methylpyrazol-4-yl)amino]pyrimidin-5-yl]phenyl]acetamide]",0.0001 to 10 µM
11,"Cn1cc(Nc2ncc(-c3ccc(CC(=O)Nc4cncc(C(C)(F)F)c4)cc3)cn2)cn1 [Compound P-0144, N-[5-(1,1-difluoroethyl)-3-pyridyl]-2-[4-[2-[(1-methylpyrazol-4-yl)amino]pyrimidin-5-yl]phenyl]acetamide]",0.0001 to 10 µM
12,"Cn1cc(Nc2ncc(-c3ccc(CC(=O)Nc4cnc(Cl)c(C(F)(F)F)c4)cc3)cn2)cn1 [Compound P-0145, N-[6-chloro-5-(trifluoromethyl)-3-pyridyl]-2-[4-[2-[(1-methylpyrazol-4-yl)amino]pyrimidin-5-yl]phenyl]acetamide]",0.0001 to 10 µM
13,"Cn1cc(Nc2ncc(-c3ccc(CC(=O)Nc4ccc(C(C)(C)C#N)nc4)cc3)cn2)cn1 [Compound P-0146, N-[6-(1-cyano-1-methyl-ethyl)-3-pyridyl]-2-[4-[2-[(1-methylpyrazol-4-yl)amino]pyrimidin-5-yl]phenyl]acetamide]",0.0001 to 10 µM
14,"COc1ncc(NC(=O)Cc2ccc(-c3cnc(Nc4cn(C)cn4)nc3)cc2)cc1C(F)(F)F [Compound P-0149, N-[6-methoxy-5-(trifluoromethyl)-3-pyridyl]-2-[4-[2-[(1-methylimidazol-4-yl)amino]pyrimidin-5-yl]phenyl]acetamide]",0.0001 to 10 µM
15,"Cc1ncc(NC(=O)Cc2ccc(-c3cnc(Nc4cn(C)cn4)nc3)cc2)cc1C(F)(F)F [Compound P-0150, 2-[4-[2-[(1-methylimidazol-4-yl)amino]pyrimidin-5-yl]phenyl]-N-[6-methyl-5-(trifluoromethyl)-3-pyridyl]acetamide]",0.0001 to 10 µM
16,"Cn1cc(Nc2ncc(-c3ccc(CC(=O)Nc4cnnc(Cl)c4)cc3)cn2)cn1 [Compound P-0151, N-(6-chloropyridazin-4-yl)-2-[4-[2-[(1-methylpyrazol-4-yl)amino]pyrimidin-5-yl]phenyl]acetamide]",0.0001 to 10 µM
17,"Cn1cc(Nc2ncc(-c3ccc(CC(=O)Nc4cccc(C(F)(F)F)n4)cc3)cn2)cn1 [Compound P-0152, 2-[4-[2-[(1-methylpyrazol-4-yl)amino]pyrimidin-5-yl]phenyl]-N-[6-(trifluoromethyl)-2-pyridyl]acetamide]",0.0001 to 10 µM
18,"COc1cc(NC(=O)Cc2ccc(-c3cnc(Nc4cnn(C)c4)nc3)cc2)ccn1 [Compound P-0153, N-(2-methoxy-4-pyridyl)-2-[4-[2-[(1-methylpyrazol-4-yl)amino]pyrimidin-5-yl]phenyl]acetamide]",0.0001 to 10 µM
19,"Cn1cc(Nc2ncc(-c3ccc(CC(=O)Nc4ccnc(S(C)(=O)=O)c4)cc3)cn2)cn1 [Compound P-0154, 2-[4-[2-[(1-methylpyrazol-4-yl)amino]pyrimidin-5-yl]phenyl]-N-(2-methylsulfonyl-4-pyridyl)acetamide]",0.0001 to 10 µM
20,"Cn1cc(Nc2ncc(-c3ccc(CC(=O)Nc4cccc(S(C)(=O)=O)c4)cc3)cn2)cn1 [Compound P-0155, 2-[4-[2-[(1-methylpyrazol-4-yl)amino]pyrimidin-5-yl]phenyl]-N-(3-methylsulfonylphenyl)acetamide]",0.0001 to 10 µM
21,"Cn1cc(Nc2ncc(-c3ccc(CC(=O)Nc4ccc(S(C)(=O)=O)cc4)cc3)cn2)cn1 [Compound P-0156, 2-[4-[2-[(1-methylpyrazol-4-yl)amino]pyrimidin-5-yl]phenyl]-N-(4-methylsulfonylphenyl)acetamide]",0.0001 to 10 µM
22,"Cn1cc(Nc2ncc(-c3ccc(CC(=O)Nc4cccc(OC(F)(F)F)c4)cc3)cn2)cn1 [Compound P-0157, 2-[4-[2-[(1-methylpyrazol-4-yl)amino]pyrimidin-5-yl]phenyl]-N-[3-(trifluoromethoxy)phenyl]acetamide]",0.0001 to 10 µM
23,"Cn1cc(Nc2ncc(-c3ccc(CC(=O)Nc4cccc(C(C)(C)C#N)c4)cc3)cn2)cn1 [Compound P-0158, N-[3-(1-cyano-1-methyl-ethyl)phenyl]-2-[4-[2-[(1-methylpyrazol-4-yl)amino]pyrimidin-5-yl]phenyl]acetamide]",0.0001 to 10 µM
24,"Cn1cc(Nc2ncc(-c3ccc(CC(=O)NCc4ncccc4C(F)(F)F)cc3)cn2)cn1 [Compound P-0159, 2-[4-[2-[(1-methylpyrazol-4-yl)amino]pyrimidin-5-yl]phenyl]-N-[[3-(trifluoromethyl)-2-pyridyl]methyl]acetamide]",0.0001 to 10 µM
25,"COc1ccccc1CNC(=O)Cc1ccc(-c2cnc(Nc3cnn(C)c3)nc2)cc1 [Compound P-0160, N-[(2-methoxyphenyl)methyl]-2-[4-[2-[(1-methylpyrazol-4-yl)amino]pyrimidin-5-yl]phenyl]acetamide]",0.0001 to 10 µM
26,"Cn1cc(Nc2ncc(-c3ccc(CC(=O)NCc4cncc(C(F)(F)F)c4)cc3)cn2)cn1 [Compound P-0161, 2-[4-[2-[(1-methylpyrazol-4-yl)amino]pyrimidin-5-yl]phenyl]-N-[[5-(trifluoromethyl)-3-pyridyl]methyl]acetamide]",0.0001 to 10 µM
27,"Cn1cc(Nc2ncc(-c3ccc(CC(=O)Nc4cc(Cl)c(C5CC5)cn4)cc3)cn2)cn1 [Compound P-0164, N-(4-chloro-5-cyclopropyl-2-pyridyl)-2-[4-[2-[(1-methylpyrazol-4-yl)amino]pyrimidin-5-yl]phenyl]acetamide]",0.0001 to 10 µM
28,"CCn1cc(Nc2ncc(-c3ccc(CC(=O)Nc4cnc(Cl)c(C(F)(F)F)c4)cc3)cn2)cn1 [Compound P-0165, N-[6-chloro-5-(trifluoromethyl)-3-pyridyl]-2-[4-[2-[(1-ethylpyrazol-4-yl)amino]pyrimidin-5-yl]phenyl]acetamide]",0.0001 to 10 µM
